Consider 23 molecules from ChEMBL document CHEMBL5614422, “Design, synthesis and biological evaluation of N-salicyloyl tryptamine derivatives as multifunctional neuroprotectants for the treatment of ischemic stroke” (Eur J Med Chem, 2024).

Values after ≈ are worked out from the molar mass of the structure shown.

System in one series: not listed separately
Kind of series: Cytotoxicity against mouse HT-22 cells assessed as cell viability incubated for 24 hrs by CCK-8 method. The class given is toxicity, cell-based.
Conditions: not given
In the case of `O=C(NCCc1c[nH]c2ccccc12)c1ccccc1O`, the IC50 at 24 h is more than 100 µM.

For `Cc1ccc(C(=O)NCCc2c[nH]c3cc4c(cc23)OCO4)c(O)c1`, the half-inhibitory concentration (IC50) at 24 h is more than 100 µM.

As for `Cc1ccc(C(=O)NCCc2c[nH]c3c(N(C)C)cccc23)c(O)c1`, the IC50 at 24 h turned out to be 59.8 µM.

With `Cc1cccc(O)c1C(=O)NCCc1c[nH]c2ccccc12`, the IC50 at 24 h was found to be 60 µM.

For the molecule `COc1cccc2c(CCNC(=O)c3ccc(C)cc3O)c[nH]c12`, the IC50 at 24 h came out at 73.2 µM.

As to `COc1cccc2[nH]cc(CCNC(=O)c3ccc(C)cc3O)c12`, the IC50 at 24 h was 78.4 µM.

On to `Cc1ccc(C(=O)NCCc2c[nH]c3cc(Br)ccc23)c(O)c1`, for which the half-maximal inhibitory concentration (IC50) at 24 h worked out at 70.8 µM.

On to `Cc1ccc(C(=O)NCCc2c[nH]c3c(F)cccc23)c(O)c1`, for which the half-inhibitory concentration (IC50) at 24 h was determined as 86.2 µM.

Regarding `O=C(NCCc1c[nH]c2ccccc12)c1cc(Cl)ccc1O`, the IC50 at 24 h is more than 100 µM.

Regarding `COc1cc(C)cc2[nH]cc(CCNC(=O)c3ccc(C)cc3O)c12`, the IC50 at 24 h stood at 73 µM.

`COc1ccc2c(CCNC(=O)c3ccc(C)cc3O)c[nH]c2c1`: the IC50 at 24 h came to 102 µM.

Consider `COc1cccc(O)c1C(=O)NCCc1c[nH]c2ccccc12`, for which the IC50 at 24 h is 8.06 µM.

`Cc1ccc(C(=O)NCCc2c[nH]c3ccc(F)cc23)c(O)c1`: the IC50 at 24 h was more than 100 µM.

On to `Cc1cccc(C(=O)NCCc2c[nH]c3ccccc23)c1O`, for which the 50% inhibitory concentration (IC50) at 24 h came out at 51.5 µM.

As to `O=C(NCCc1c[nH]c2ccccc12)c1cccc(Br)c1O`, the 50% inhibitory concentration (IC50) at 24 h was 48.5 µM.

For `COc1cccc(C(=O)NCCc2c[nH]c3ccccc23)c1O`, the IC50 at 24 h is more than 100 µM.

Take `Cc1ccc(C(=O)NCCc2c[nH]c3ccccc23)c(O)c1`: the half-inhibitory concentration (IC50) at 24 h was more than 100 µM.

With `Cc1ccc(C(=O)NCCc2c[nH]c3ccc(Cl)cc23)c(O)c1`, the IC50 at 24 h was 61.2 µM.

In the case of `O=C(NCCc1c[nH]c2ccccc12)c1cccc(Cl)c1O`, the IC50 at 24 h came out at 52 µM.

On to `Cc1ccc(C(=O)NCCc2c[nH]c3cc(N(C)C)ccc23)c(O)c1`, for which the IC50 at 24 h turned out to be 46.4 µM.

As to `CNc1cccc2c(CCNC(=O)c3ccc(C)cc3O)c[nH]c12`, the IC50 at 24 h was more than 100 µM.

For `Cc1ccc(C(=O)NCCc2c[nH]c3c(C)cccc23)c(O)c1`, the IC50 at 24 h was more than 100 µM.

The next series concerns HT-22. Kind of series: Neuroprotective activity against OGD/R induced cell damage in mouse HT-22 cells assessed as cell viability at 10 uM measured after 24 hrs by MTT assay (reference value: 69.01 +/-2.90%). The class given is functional. The conditions noted are these: read-out: Activity.
As to `CC1=NN(c2ccccc2)C(=O)C1` [EDARAVONE], the viability at 10 µM was determined as 80.9%.

On to `O=C(NCCc1c[nH]c2ccccc12)c1ccccc1O`, for which the viability at 10 µM came out at 83%.

As to `Cc1ccc(C(=O)NCCc2c[nH]c3cc4c(cc23)OCO4)c(O)c1`, the viability at 10 µM was 82.8%.

For `Cc1ccc(C(=O)NCCc2c[nH]c3c(N(C)C)cccc23)c(O)c1`, the viability at 10 µM amounted to 87.1%.

`Cc1cccc(O)c1C(=O)NCCc1c[nH]c2ccccc12`: the viability at 10 µM amounted to 88.4%.

In the case of `COc1cccc2c(CCNC(=O)c3ccc(C)cc3O)c[nH]c12`, the viability at 10 µM is 91.5%.

In the case of `COc1cccc2[nH]cc(CCNC(=O)c3ccc(C)cc3O)c12`, the viability at 10 µM amounted to 74%.

For the molecule `Cc1ccc(C(=O)NCCc2c[nH]c3cc(Br)ccc23)c(O)c1`, the viability at 10 µM turned out to be 66.2%.

Regarding `Cc1ccc(C(=O)NCCc2c[nH]c3c(F)cccc23)c(O)c1`, the viability at 10 µM was determined as 92.5%.

On to `O=C(NCCc1c[nH]c2ccccc12)c1cc(Cl)ccc1O`, for which the viability at 10 µM is 77.2%.

Consider `COc1cc(C)cc2[nH]cc(CCNC(=O)c3ccc(C)cc3O)c12`, for which the viability at 10 µM is 85.4%.

Take `COc1ccc2c(CCNC(=O)c3ccc(C)cc3O)c[nH]c2c1`: the viability at 10 µM came to 61.5%.

For `COc1cccc(O)c1C(=O)NCCc1c[nH]c2ccccc12`, the viability at 10 µM turned out to be 59.2%.

As for `Cc1ccc(C(=O)NCCc2c[nH]c3ccc(F)cc23)c(O)c1`, the viability at 10 µM stood at 83.9%.

In the case of `Cc1cccc(C(=O)NCCc2c[nH]c3ccccc23)c1O`, the viability at 10 µM was found to be 87.2%.

Regarding `O=C(NCCc1c[nH]c2ccccc12)c1cccc(Br)c1O`, the viability at 10 µM came to 79.7%.

On to `COc1cccc(C(=O)NCCc2c[nH]c3ccccc23)c1O`, for which the viability at 10 µM was 87.8%.

Regarding `Cc1ccc(C(=O)NCCc2c[nH]c3ccccc23)c(O)c1`, the viability at 10 µM is 88.8%.

As for `Cc1ccc(C(=O)NCCc2c[nH]c3ccc(Cl)cc23)c(O)c1`, the viability at 10 µM was 76%.

With `O=C(NCCc1c[nH]c2ccccc12)c1cccc(Cl)c1O`, the viability at 10 µM stood at 87.9%.

`Cc1ccc(C(=O)NCCc2c[nH]c3cc(N(C)C)ccc23)c(O)c1`: the viability at 10 µM was 88.9%.

Regarding `CNc1cccc2c(CCNC(=O)c3ccc(C)cc3O)c[nH]c12`, the viability at 10 µM amounted to 80.8%.

On to `Cc1ccc(C(=O)NCCc2c[nH]c3c(C)cccc23)c(O)c1`, for which the viability at 10 µM is 79.5%.

System in a further series: not listed separately
Nature of the series: Cytotoxicity against mouse BV-2 cells assessed as cell viability incubated for 24 hrs by CCK-8 method. The format is toxicity, cell-based.
Conditions: not given
A general note: Tetrazolium dyes change colour on reduction, which living cells bring about.
On to `O=C(NCCc1c[nH]c2ccccc12)c1ccccc1O`, for which the IC50 at 24 h was found to be 55.1 µM.

`Cc1ccc(C(=O)NCCc2c[nH]c3cc4c(cc23)OCO4)c(O)c1`: the concentration for half-maximal inhibition (IC50) at 24 h was 98.8 µM.

As to `Cc1ccc(C(=O)NCCc2c[nH]c3c(N(C)C)cccc23)c(O)c1`, the half-inhibitory concentration (IC50) at 24 h was more than 100 µM.

Take `Cc1cccc(O)c1C(=O)NCCc1c[nH]c2ccccc12`: the IC50 at 24 h turned out to be 43.6 µM.

As to `COc1cccc2c(CCNC(=O)c3ccc(C)cc3O)c[nH]c12`, the half-maximal inhibitory concentration (IC50) at 24 h worked out at 90.9 µM.

Turning to `COc1cccc2[nH]cc(CCNC(=O)c3ccc(C)cc3O)c12`, the IC50 at 24 h is 96 µM.

Turning to `Cc1ccc(C(=O)NCCc2c[nH]c3cc(Br)ccc23)c(O)c1`, the IC50 at 24 h amounted to 46.6 µM.

`Cc1ccc(C(=O)NCCc2c[nH]c3c(F)cccc23)c(O)c1`: the half-maximal inhibitory concentration (IC50) at 24 h was found to be 43 µM.

As for `O=C(NCCc1c[nH]c2ccccc12)c1cc(Cl)ccc1O`, the IC50 at 24 h is more than 100 µM.

Consider `COc1cc(C)cc2[nH]cc(CCNC(=O)c3ccc(C)cc3O)c12`, for which the concentration for half-maximal inhibition (IC50) at 24 h amounted to 52.9 µM.

For `COc1ccc2c(CCNC(=O)c3ccc(C)cc3O)c[nH]c2c1`, the IC50 at 24 h is more than 100 µM.

Regarding `COc1cccc(O)c1C(=O)NCCc1c[nH]c2ccccc12`, the half-inhibitory concentration (IC50) at 24 h worked out at 21.7 µM.

As to `Cc1ccc(C(=O)NCCc2c[nH]c3ccc(F)cc23)c(O)c1`, the half-maximal inhibitory concentration (IC50) at 24 h is more than 100 µM.

For the molecule `Cc1cccc(C(=O)NCCc2c[nH]c3ccccc23)c1O`, the half-inhibitory concentration (IC50) at 24 h amounted to 36.1 µM.

Take `O=C(NCCc1c[nH]c2ccccc12)c1cccc(Br)c1O`: the 50% inhibitory concentration (IC50) at 24 h came out at 85.4 µM.

Consider `COc1cccc(C(=O)NCCc2c[nH]c3ccccc23)c1O`, for which the IC50 at 24 h was more than 100 µM.

With `Cc1ccc(C(=O)NCCc2c[nH]c3ccccc23)c(O)c1`, the half-maximal inhibitory concentration (IC50) at 24 h is more than 100 µM.

For `Cc1ccc(C(=O)NCCc2c[nH]c3ccc(Cl)cc23)c(O)c1`, the half-maximal inhibitory concentration (IC50) at 24 h was 80.5 µM.

In the case of `O=C(NCCc1c[nH]c2ccccc12)c1cccc(Cl)c1O`, the IC50 at 24 h was 50.4 µM.

As to `Cc1ccc(C(=O)NCCc2c[nH]c3cc(N(C)C)ccc23)c(O)c1`, the concentration for half-maximal inhibition (IC50) at 24 h amounted to 52.4 µM.

For the molecule `CNc1cccc2c(CCNC(=O)c3ccc(C)cc3O)c[nH]c12`, the 50% inhibitory concentration (IC50) at 24 h turned out to be 28.9 µM.

For `Cc1ccc(C(=O)NCCc2c[nH]c3c(C)cccc23)c(O)c1`, the IC50 at 24 h was 39.1 µM.

System in a further series: not listed separately
Nature of the series: Antioxidant activity assessed as trolox equivalent of ORAC radical scavenging activity at 0.125 to 2 uM by AAPH based automatic microplate reader analysis. The format is functional. The conditions noted are these: dose 0.125-2 µM.
With `CC1=NN(c2ccccc2)C(=O)C1` [EDARAVONE], the Activity is 2.8.

`COc1cccc2c(CCNC(=O)c3ccc(C)cc3O)c[nH]c12`: the Activity is 2.

For the molecule `Cc1ccc(C(=O)NCCc2c[nH]c3ccc(F)cc23)c(O)c1`, the Activity is 3.1.

Consider `Cc1ccc(C(=O)NCCc2c[nH]c3ccccc23)c(O)c1`, for which the Activity was found to be 4.4.

A further series relates to HT-22. Kind of series: Antioxidant activity against OGD/R induced damage in mouse HT-22 cells assessed as decrease in proportion of mitochondrial depolarized cells at 10 uM by JC-1 fluorescence based flow cytometry analysis (reference value: 91.7%). The format is functional. Also on record: scale not given: the % may be the effect or the level left.
Conditions: not given
As to `CC1=NN(c2ccccc2)C(=O)C1` [EDARAVONE], the Activity is recorded as 67.9%.

As for `Cc1ccc(C(=O)NCCc2c[nH]c3ccccc23)c(O)c1`, the Activity amounted to 74%.

The subject of another series is HT-22. Nature of the series: Anti-apoptotic activity in OGD/R mouse HT-22 cells assessed as viable cells at 10 uM by annexin V-FITC and PI staining based flow cytometry analysis (reference value: 83.09%). The conditions noted are these: read-out: Activity. The class given is functional. (In general: In flow cytometry, cells or beads pass a laser one at a time.)
Regarding `CC1=NN(c2ccccc2)C(=O)C1` [EDARAVONE], the viability at 10 µM was found to be 92.1%.

For a further series, the system named is HT-22. Kind of series: Anti-apoptotic activity in OGD/R mouse HT-22 cells assessed as early apoptotic cells at 10 uM by annexin V-FITC and PI staining based flow cytometry analysis (reference value: 9.51%). The format is functional.
Conditions: not given
`CC1=NN(c2ccccc2)C(=O)C1` [EDARAVONE]: the Activity is 1.78%.

The subject of a further series is HT-22. Nature of the series: Anti-apoptotic activity in OGD/R mouse HT-22 cells assessed as late apoptotic cells at 10 uM by annexin V-FITC and PI staining based flow cytometry analysis (reference value: 7.26%). The format is functional.
Conditions: not given
On to `CC1=NN(c2ccccc2)C(=O)C1` [EDARAVONE], for which the Activity was determined as 5.39%.

The subject of another series is HT-22. Nature of the series: Anti-apoptotic activity in OGD/R mouse HT-22 cells assessed as necrotic cells at 10 uM by annexin V-FITC and PI staining based flow cytometry analysis (reference value: 0.14%).
Conditions: not given
The format is functional.
Consider `CC1=NN(c2ccccc2)C(=O)C1` [EDARAVONE], for which the Activity is listed as 0.72%.

System in a further series: not listed separately
Nature of the series: Aqueous solubility of the compound incubated for 72 hrs under shaking condition by HPLC analysis. The class given is physicochemical.
Conditions: not given
`CC1=NN(c2ccccc2)C(=O)C1` [EDARAVONE] showed a thermodynamic solubility at 72 h of 1840 µg/mL (≈ 10.6 mM).

What is called IC50 is the concentration at which inhibition is half-maximal. The solubility (thermodynamic) is the concentration in solution at equilibrium with solid.
